Laboratory results from PubChem BioAssay AID1963825 (Molecular Pharmacology Branch, DTP, NCI, 2024).

Experiment: Anticancer human tumor 997537-175-T-J1-PDC patient-derived colon adenocarcinoma cell line growth inhibition [POLQ]
Settings: 997537-175-T-J1-PDC complex spheroid viability, combination with POLQ inhibitors; for IC50: curve of first compound; for viability, T/C: stronger effect = lower value
Procedure, shortened: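 PDC + HUVEC + MSC complex spheroids; POLQ inhibitors ± partner drugs; top conc. at/near clinical Cmax, else 10 microM (SN-38 1 microM), half-log dilutions; 37 degrees C, 5% CO2.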

[1] = second compound 0.0316 µM, first compound 0.0316 µM
[2] = second compound 0.0316 µM, first compound 0.1 µM
[3] = second compound 0.0316 µM, first compound 0.316 µM
[4] = second compound 0.0316 µM, first compound 1 µM
[5] = second compound 0.0316 µM, first compound 3.16 µM
[6] = second compound 0.0316 µM, first compound 10 µM
[7] = second compound 0.1 µM, first compound 0.0316 µM
[8] = second compound 0.1 µM, first compound 0.1 µM
[9] = second compound 0.1 µM, first compound 0.316 µM
[10] = second compound 0.1 µM, first compound 1 µM
[11] = second compound 0.1 µM, first compound 3.16 µM
[12] = second compound 0.1 µM, first compound 10 µM
[13] = second compound 0.316 µM, first compound 0.0316 µM
[14] = second compound 0.316 µM, first compound 0.1 µM
[15] = second compound 0.316 µM, first compound 0.316 µM
[16] = second compound 0.316 µM, first compound 1 µM
[17] = second compound 0.316 µM, first compound 3.16 µM
[18] = second compound 0.316 µM, first compound 10 µM
[19] = second compound 1 µM, first compound 0.0316 µM
[20] = second compound 1 µM, first compound 0.1 µM
[21] = second compound 1 µM, first compound 0.316 µM
[22] = second compound 1 µM, first compound 1 µM
[23] = second compound 1 µM, first compound 3.16 µM
[24] = second compound 1 µM, first compound 10 µM
[25] = second compound 3.16 µM, first compound 0.0316 µM
[26] = second compound 3.16 µM, first compound 0.1 µM
[27] = second compound 3.16 µM, first compound 0.316 µM
[28] = second compound 3.16 µM, first compound 1 µM
[29] = second compound 3.16 µM, first compound 3.16 µM
[30] = second compound 3.16 µM, first compound 10 µM
[31] = second compound 10 µM, first compound 0.0316 µM
[32] = second compound 10 µM, first compound 0.1 µM
[33] = second compound 10 µM, first compound 0.316 µM
[34] = second compound 10 µM, first compound 1 µM
[35] = second compound 10 µM, first compound 3.16 µM
[36] = second compound 10 µM, first compound 10 µM
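Note: luminescence signal used as a surrogate for viable cells; spheroids exposed to drugs for seven days before readout.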

## CC1COCCN1c1cc(-c2ccnn2C)c2ccnc(-c3ccn[nH]3)c2n1 (stereo unspecified) + Nc1ccc(C#CCN(C(=O)Cc2ncc(C(F)(F)F)cc2C(F)(F)F)c2ccc(F)cc2)nn1
Second compound 0.0316 µM
  IC50: > 10 µM
Second compound 0.1 µM
  IC50: 3.16 µM
Second compound 0.316 µM
  IC50: > 10 µM
Second compound 1 µM
  IC50: > 10 µM
Second compound 3.16 µM
  IC50: 3.16 µM
Second compound 10 µM
  IC50: 0.305 µM
[1]
  viability, T/C: 103%
[2]
  viability, T/C: 83.6%
[3]
  viability, T/C: 58.3%
[4]
  viability, T/C: 49.4%
[5]
  viability, T/C: 36.8%
[6]
  viability, T/C: 71.6%
[7]
  viability, T/C: 101%
[8]
  viability, T/C: 92.2%
[9]
  viability, T/C: 38.2%
[10]
  viability, T/C: 49.5%
[11]
  viability, T/C: 48.3%
[12]
  viability, T/C: 69.6%
[13]
  viability, T/C: 99.1%
[14]
  viability, T/C: 90.6%
[15]
  viability, T/C: 51.4%
[16]
  viability, T/C: 42.5%
[17]
  viability, T/C: 52%
[18]
  viability, T/C: 65.8%
[19]
  viability, T/C: 93.1%
[20]
  viability, T/C: 76.1%
[21]
  viability, T/C: 39.4%
[22]
  viability, T/C: 75.2%
[23]
  viability, T/C: 50%
[24]
  viability, T/C: 53.4%
[25]
  viability, T/C: 99.2%
[26]
  viability, T/C: 84.3%
[27]
  viability, T/C: 36%
[28]
  viability, T/C: 28.6%
[29]
  viability, T/C: 52.5%
[30]
  viability, T/C: 82%
[31]
  viability, T/C: 83.5%
[32]
  viability, T/C: 75.3%
[33]
  viability, T/C: 39.2%
[34]
  viability, T/C: 32.5%
[35]
  viability, T/C: 57.5%
[36]
  viability, T/C: 67.5%

## CC1COCCN1c1cc(C2(S(C)(=N)=O)CC2)nc(-c2ccnc3[nH]ccc23)n1 (stereo unspecified) + Nc1ccc(C#CCN(C(=O)Cc2ncc(C(F)(F)F)cc2C(F)(F)F)c2ccc(F)cc2)nn1
Second compound 0.0316 µM
  IC50: > 10 µM
Second compound 0.1 µM
  IC50: 7.51 µM
Second compound 0.316 µM
  IC50: > 10 µM
Second compound 1 µM
  IC50: > 10 µM
Second compound 3.16 µM
  IC50: 6.51 µM
Second compound 10 µM
  IC50: > 10 µM
[1]
  viability, T/C: 115%
[2]
  viability, T/C: 107%
[3]
  viability, T/C: 86.7%
[4]
  viability, T/C: 96.5%
[5]
  viability, T/C: 87.1%
[6]
  viability, T/C: 57.2%
[7]
  viability, T/C: 105%
[8]
  viability, T/C: 105%
[9]
  viability, T/C: 81.3%
[10]
  viability, T/C: 95.4%
[11]
  viability, T/C: 65.5%
[12]
  viability, T/C: 43.9%
[13]
  viability, T/C: 109%
[14]
  viability, T/C: 103%
[15]
  viability, T/C: 97.5%
[16]
  viability, T/C: 79.2%
[17]
  viability, T/C: 79.4%
[18]
  viability, T/C: 71.7%
[19]
  viability, T/C: 97.8%
[20]
  viability, T/C: 108%
[21]
  viability, T/C: 105%
[22]
  viability, T/C: 81%
[23]
  viability, T/C: 63.9%
[24]
  viability, T/C: 52%
[25]
  viability, T/C: 93.9%
[26]
  viability, T/C: 91.2%
[27]
  viability, T/C: 107%
[28]
  viability, T/C: 92.4%
[29]
  viability, T/C: 66.9%
[30]
  viability, T/C: 40%
[31]
  viability, T/C: 94.9%
[32]
  viability, T/C: 94.6%
[33]
  viability, T/C: 94.6%
[34]
  viability, T/C: 81.7%
[35]
  viability, T/C: 47%
[36]
  viability, T/C: 55.8%

## COc1ccc([C@@H](O)c2cc(-c3ncnc4cc(N5CCOCC5)ccc34)c(F)cc2Cl)nn1 + Nc1ccc(C#CCN(C(=O)Cc2ncc(C(F)(F)F)cc2C(F)(F)F)c2ccc(F)cc2)nn1
Second compound 0.0316 µM
  IC50: > 10 µM
Second compound 0.1 µM
  IC50: > 10 µM
Second compound 0.316 µM
  IC50: > 10 µM
Second compound 1 µM
  IC50: > 10 µM
Second compound 3.16 µM
  IC50: > 10 µM
Second compound 10 µM
  IC50: > 10 µM
[1]
  viability, T/C: 95%
[2]
  viability, T/C: 110%
[3]
  viability, T/C: 100%
[4]
  viability, T/C: 101%
[5]
  viability, T/C: 85%
[6]
  viability, T/C: 74.3%
[7]
  viability, T/C: 98.8%
[8]
  viability, T/C: 110%
[9]
  viability, T/C: 99%
[10]
  viability, T/C: 98.3%
[11]
  viability, T/C: 71.5%
[12]
  viability, T/C: 71%
[13]
  viability, T/C: 110%
[14]
  viability, T/C: 109%
[15]
  viability, T/C: 91%
[16]
  viability, T/C: 99.1%
[17]
  viability, T/C: 96.1%
[18]
  viability, T/C: 65.6%
[19]
  viability, T/C: 96%
[20]
  viability, T/C: 98.2%
[21]
  viability, T/C: 94.7%
[22]
  viability, T/C: 91.6%
[23]
  viability, T/C: 79.3%
[24]
  viability, T/C: 94.2%
[25]
  viability, T/C: 107%
[26]
  viability, T/C: 99.1%
[27]
  viability, T/C: 96.7%
[28]
  viability, T/C: 96.6%
[29]
  viability, T/C: 87.6%
[30]
  viability, T/C: 82.1%
[31]
  viability, T/C: 99.5%
[32]
  viability, T/C: 107%
[33]
  viability, T/C: 95.7%
[34]
  viability, T/C: 95.8%
[35]
  viability, T/C: 85.3%
[36]
  viability, T/C: 92.7%
